Experimental data as given in patent US7846956B2, “Malononitrile compound as pesticides” (Sumitomo Chemical Company, Limited, priority 2004, dated 2010).
Like-named read-outs stand apart in the source and are kept apart here.

How the values were obtained:
Format in all cases: in vivo
[1] = tested on: Culex pipiens pallens; test: Experimental Example 5: larvae in treated water, death rate of Culex pipiens pallens; conditions: 24 h, read-out: death rate of the pest
Experimental: Preparations of the present compounds (1), (2), (4), (5), (6), (8), (9), (11), (12), (13), (14), (15), (16), (17), (18), (19), (21), (22), (23), (24), (25), (26), (27), (31), (33), (34), (35), (36), (37), (38), (39), (40), (42), (43), (47), (48), (50), (52), (53), (54), (62), (64), (65), (66), (67), (68) and (70) obtained according to Formulation Example 5 were diluted with water so that the active ingredient concentration was 500 ppm to prepare experimental pesticidal solutions.
0.7 ml of the experimental pesticidal solution was added to 100 mL of ion-exchanged water (active ingredient concentration: 3.5 ppm). Into the solution, 20 last-instar larvae of Culex pipiens pallens were released. After one day, the surviving number was examined and the death rate of the pest was calculated.

[2] = tested on: Musca domestics; test: Experimental Example 3: filter paper test with sucrose bait, death rate of Musca domestics; conditions: read-out: death rate of the pest
Experimental: Preparations of the present compounds (1), (2), (3), (4), (5), (6), (8), (9), (10), (11), (12), (13), (14), (15), (16), (17), (18), (19), (21), (22), (23), (24), (25), (26), (27), (31), (34), (35), (36), (37), (38), (39), (40), (42), (47), (50), (52), (54), (66), (67) and (68) obtained according to Formulation Example 5 were diluted with water so that the active ingredient concentration was 500 ppm to prepare experimental pesticidal solutions.
(§1) A filter paper having a diameter of 5.5 cm was spread on the bottom of a polyethylene cup having a diameter of 5.5 cm and 0.7 ml of the experimental pesticidal solution was added dropwise onto the filter paper. As a bait 30 mg of sucrose was uniformly placed on the filter paper. Into the polyethylene cup, 10 female Musca domestics imagoes were released and the cup was sealed with a lid. After 24 hours, the number of surviving Musca domestics was examined and the death rate of the pest was calculated.

[3] = tested on: Blattalla germanica; test: Experimental Example 4: filter paper test with sucrose bait, death rate of Blattalla germanica; conditions: 144 h; 500 ppm active ingredient, 0.7 ml on filter paper; two male imagoes; after 6 days
Experimental: Preparations of the present compounds (2), (4), (5), (6), (8), (9), (11), (12), (13), (15), (17), (18), (19), (21), (24), (25), (26), (27), (35), (36), (37), (38), (40), (41), (42), (47), (50), (52), (54), (62), (64), (65), (66) and (68) obtained according to Formulation Example 5 were diluted with water so that the active ingredient concentration was 500 ppm to prepare experimental pesticidal solutions.
as §1, with “two male Blattalla gexmanica images” for “10 female Musca domestics imagoes”, “6 days,” for “24 hours,”, “Blattalla germanica” for “Musca domestics”

[4] = active ingredient concentration 3.5 ppm in water, 20 last-instar larvae, after one day
[5] = 500 ppm active ingredient, 0.7 ml on filter paper, 10 female imagoes, after 24 hours

| Compound | pest or weed control at 3.5 ppm [1, 4] | pest or weed control at 500 ppm [2, 5] | pest or weed control at 500 ppm [3] | pest or weed control at 3.5 ppm [1] | pest or weed control at 500 ppm ([2]; 24 h) |
| --- | --- | --- | --- | --- | --- |
| CC(C)(C)c1cc(CC(C#N)(C#N)CCC(F)(F)F)[nH]n1 [present compound (1)] | ≥ 95% | ≥ 90% |  |  |  |
| Cn1nc(C(C)(C)C)cc1CC(C#N)(C#N)CCC(F)(F)F [present compound (2)] | ≥ 95% | ≥ 90% | 100% |  |  |
| CC(C)(C)c1cc(CC(C#N)(C#N)CCC(F)(F)F)n(CC(F)(F)F)n1 [present compound (3)] |  | ≥ 90% |  |  |  |
| CC(C)(C)c1cc(CC(C#N)(C#N)CCC(F)(F)F)on1 [present compound (4)] | ≥ 95% | ≥ 90% | 100% |  |  |
| CC(C)(C)c1cc(CC(C#N)(C#N)CCC(F)(F)F)sn1 [present compound (5)] | ≥ 95% | ≥ 90% | 100% |  |  |
| CC(C)(C)c1cc(CC(C#N)(C#N)CCC(F)(F)F)no1 [present compound (6)] | ≥ 95% | ≥ 90% | 100% |  |  |
| N#CC(C#N)(CCC(F)(F)F)Cc1cnn(Cc2ccccc2)c1 [present compound (8)] | ≥ 95% | ≥ 90% | 100% |  |  |
| CC(C)(C)c1nc(CC(C#N)(C#N)CCC(F)(F)F)co1 [present compound (9)] | ≥ 95% | ≥ 90% | 100% |  |  |
| N#CC(C#N)(CCC(F)(F)F)Cc1cscn1 [present compound (10)] |  | ≥ 90% |  |  |  |
| Cc1nc(CC(C#N)(C#N)CCC(F)(F)F)cs1 [present compound (11)] | ≥ 95% | ≥ 90% | 100% |  |  |
| CC(C)(C)c1nc(CC(C#N)(C#N)CCC(F)(F)F)cs1 [present compound (12)] | ≥ 95% | ≥ 90% | 100% |  |  |
| N#CC(C#N)(CCC(F)(F)F)Cc1csc(Cl)n1 [present compound (13)] | ≥ 95% | ≥ 90% | 100% |  |  |
| C#CCOc1nc(CC(C#N)(C#N)CCC(F)(F)F)cs1 [present compound (14)] | ≥ 95% | ≥ 90% |  |  |  |
| Cc1ncc(CC(C#N)(C#N)CCC(F)(F)F)s1 [present compound (15)] | ≥ 95% | ≥ 90% | 100% |  |  |
| CCc1ncc(CC(C#N)(C#N)CCC(F)(F)F)s1 [present compound (16)] | ≥ 95% | ≥ 90% |  |  |  |
| CC(C)(C)c1ncc(CC(C#N)(C#N)CCC(F)(F)F)s1 [present compound (17)] | ≥ 95% | ≥ 90% | 100% |  |  |
| N#CC(C#N)(CCC(F)(F)F)Cc1cnc(Cl)s1 [present compound (18)] | ≥ 95% | ≥ 90% | 100% |  |  |
| C#CCOc1ncc(CC(C#N)(C#N)CCC(F)(F)F)s1 [present compound (19)] | ≥ 95% | ≥ 90% | 100% |  |  |
| CC(C)(C)c1nsc(CC(C#N)(C#N)CCC(F)(F)F)n1 [present compound (21)] | ≥ 95% | ≥ 90% | 100% |  |  |
| CC(C)(C)c1nnc(CC(C#N)(C#N)CCC(F)(F)F)o1 [present compound (22)] | ≥ 95% | ≥ 90% |  |  |  |
| CCc1nc(CC(C#N)(C#N)CCC(F)(F)F)no1 [present compound (23)] | ≥ 95% | ≥ 90% |  |  |  |

| Compound | pest or weed control at 3.5 ppm [1, 4] | pest or weed control at 500 ppm [2, 5] | pest or weed control at 500 ppm [3] | pest or weed control at 3.5 ppm [1] | pest or weed control at 500 ppm ([2]; 24 h) |
| --- | --- | --- | --- | --- | --- |
| CC(C)(C)c1nc(CC(C#N)(C#N)CCC(F)(F)F)no1 [present compound (24)] | ≥ 95% | ≥ 90% | 100% |  |  |
| CC1(c2nc(CC(C#N)(C#N)CCC(F)(F)F)no2)CC1 [present compound (25)] | ≥ 95% | ≥ 90% | 100% |  |  |
| CC(C)(C)Cc1nc(CC(C#N)(C#N)CCC(F)(F)F)no1 [present compound (26)] | ≥ 95% | ≥ 90% | 100% |  |  |
| CC(c1cnn(C(C)(C)C)c1)C(C#N)(C#N)CCC(F)(F)F (centres unmarked) [present compound (27)] | ≥ 95% | ≥ 90% | 100% |  |  |
| C#CCn1cc(CC(C#N)(C#N)CCC(F)(F)F)cn1 [present compound (31)] | ≥ 95% | ≥ 90% |  |  |  |
| CC(C)(C)n1cc(CC(C#N)(C#N)C2C=CCCC2)cn1 (centres unmarked) [present compound (33)] | ≥ 95% |  |  |  |  |
| CC(C)(C)n1ncc(CC(C#N)(C#N)CCC(F)(F)F)c1-n1cccc1 [present compound (34)] | ≥ 95% | ≥ 90% |  |  |  |
| N#CC(C#N)(CCC(F)(F)F)Cc1cc(C(F)(F)F)on1 [present compound (35)] | ≥ 95% | ≥ 90% | 100% |  |  |
| CC(c1cc(C(F)(F)F)on1)C(C#N)(C#N)CCC(F)(F)F (centres unmarked) [present compound (36)] | ≥ 95% | ≥ 90% | 100% |  |  |
| CCC(c1cc(C(F)(F)F)on1)C(C#N)(C#N)CCC(F)(F)F (centres unmarked) [present compound (37)] | ≥ 95% | ≥ 90% | 100% |  |  |
| N#CC(C#N)(CCC(F)(F)F)Cc1cc(C(F)(F)C(F)(F)F)on1 [present compound (38)] | ≥ 95% | ≥ 90% | 100% |  |  |
| N#CC(C#N)(CCC(F)(F)F)Cc1cc(C(F)(F)C(F)(F)C(F)(F)F)on1 [present compound (39)] |  |  |  | ≥ 95% | ≥ 90% |
| CC(C)c1cc(C(C)C(C#N)(C#N)CCC(F)(F)F)no1 (centres unmarked) [present compound (41)] |  |  | 100% |  |  |
| CC(C)(C)[Si](C)(C)OCc1cc(CC(C#N)(C#N)CCC(F)(F)F)no1 [present compound (43), [(5-(t-butyldimethylsilanyloxymethyl)isoxazol-3-yl)methyl](3,3,3-trifluoropropyl)malononitrile] |  |  |  | ≥ 95% |  |
| CC(O[Si](C)(C)C(C)(C)C)c1cc(CC(C#N)(C#N)CCC(F)(F)F)no1 (centres unmarked) [present compound (48)] |  |  |  | ≥ 95% |  |
| CC(C)(O)c1cc(CC(C#N)(C#N)CCC(F)(F)F)no1 [present compound (53)] | ≥ 95% |  |  |  |  |
| CC(c1cc(C(C)(C)O)on1)C(C#N)(C#N)CCC(F)(F)F (centres unmarked) [present compound (62)] | ≥ 95% |  | 100% |  |  |
| CCC(c1cc(C(C)(C)O)on1)C(C#N)(C#N)CCC(F)(F)F (centres unmarked) [present compound (64)] | ≥ 95% |  | 100% |  |  |
| CC(C)C(c1cc(C(C)(C)O)on1)C(C#N)(C#N)CCC(F)(F)F (centres unmarked) [present compound (65)] | ≥ 95% |  | 100% |  |  |
| C#CCOC(C)(C)c1cc(CC(C#N)(C#N)CCC(F)(F)F)no1 [present compound (67)] | ≥ 95% | ≥ 90% |  |  |  |
| CC[S+]([O-])c1ncc(CC(C#N)(C#N)CCC(F)(F)F)n1C (centres unmarked) [present compound (70)] | ≥ 95% |  |  |  |  |
